Data taken from US11673889B2, “Substituted imidazo[4,5-c][1,8]naphthyridines as phosphodiesterase inhibitors” (Nanjing Zhengxiang Pharmaceuticals Co., Ltd., priority 2019, dated 2023).

Columns and labels:
[1] = target: T1, human soluble ENPP1 (Homo sapiens, UniProt P22413); assay: ENPP1 activity assay using p-Nitrophenyl-5′-TMP as a substrate; assay type: biochemical
T1 construct: 20 ng of human soluble ENPP1
T1 sequence (P22413 103-925 limits assumed): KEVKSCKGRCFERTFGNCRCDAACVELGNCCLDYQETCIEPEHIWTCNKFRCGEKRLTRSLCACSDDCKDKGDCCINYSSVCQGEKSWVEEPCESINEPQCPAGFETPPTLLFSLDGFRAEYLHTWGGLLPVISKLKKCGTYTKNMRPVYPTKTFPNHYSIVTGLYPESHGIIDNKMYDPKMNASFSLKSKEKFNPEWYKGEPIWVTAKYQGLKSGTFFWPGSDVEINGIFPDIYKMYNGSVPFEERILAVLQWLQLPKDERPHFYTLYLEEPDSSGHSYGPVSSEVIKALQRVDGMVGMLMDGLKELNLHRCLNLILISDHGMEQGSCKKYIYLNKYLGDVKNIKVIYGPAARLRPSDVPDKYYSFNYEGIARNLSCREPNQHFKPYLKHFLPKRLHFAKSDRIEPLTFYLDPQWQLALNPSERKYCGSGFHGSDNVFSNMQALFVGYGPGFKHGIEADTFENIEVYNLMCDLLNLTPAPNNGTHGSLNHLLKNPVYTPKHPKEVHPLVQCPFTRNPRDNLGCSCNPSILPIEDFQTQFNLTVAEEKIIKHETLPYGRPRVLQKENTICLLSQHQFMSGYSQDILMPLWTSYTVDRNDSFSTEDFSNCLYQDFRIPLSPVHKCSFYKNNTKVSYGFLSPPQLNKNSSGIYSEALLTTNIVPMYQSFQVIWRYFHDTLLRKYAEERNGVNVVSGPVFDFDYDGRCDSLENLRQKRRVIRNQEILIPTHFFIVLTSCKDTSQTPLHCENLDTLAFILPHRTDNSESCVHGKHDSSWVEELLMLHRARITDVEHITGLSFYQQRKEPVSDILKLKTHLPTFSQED
How it was run: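 Human soluble ENPP1 (20 ng) was preincubated with inhibitor for 30 min at room temperature. TMP-pNP was then added as a 2 mM […] solution and incubated 1 h at RT, with p-nitrophenol formation read by OD. IC50 came from four-parameter fits of % inhibition relative to no-inhibitor and blank controls.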

[2] = system: cGAMP activated THP-1 cells; assay: ENPP1 inhibitors screening on cGAMP activated THP-1 cells (IFN-β ELISA); assay type: cell-based; settings: THP-1 cells with 2′3′-cGAMP, 24 hours, FIGS. 1A-1E
Experimental: THP-1 cells from bulk cultures were counted and suspended in RPMI 1640, 20% FBS, 2.5 mM L-alanyl-L-glutamine at a concentration of 5.5×10^6 cells/mL. The THP-1 cells were subsequently seeded into 96 well round bottom plates 180 μL/well (1×10^6 cells per well), incubated for 1 hour at 37° C., 5% CO2.
Test compounds were screened in triplicate on THP-1 cells at a final concentration of 10 μM. A working solutions at 0.2 mM. Each well contains 180 μL of THP-1 cell suspension, 10 μL (30 μM, 40 μM or 50 μM) 2′3′-cGAMP (InvivoGen, catalog #tlrl-nacga23) solution (600 μM, 800 μM or 1000 μM) and 10 μL test compound working solution. Incubate for 1 hour.
Vehicle control wells contain 2′3′-cGAMP at concentrations of […] and 50 μM without any test compound. Positive control, 2′3′-cGAMP or 2′,3′-cGAM(PS)2 (Rp/Sp) (InvivoGen, cat #tlrl-nacga2srs) at 40 μM and 80 μM (final concentration).
The final assay volume were 200 μL/well contains: 1) THP-1 cells=180 μL, 2) test compounds=10 μL, 3) 2′3′-cGAMP or 2′3′-cGAM(PS)2 (Rp/Sp) or vehicle control=10 μL.
After incubation for 24 hours at 37° C., 5% CO2, the supernatants were harvested at 200×g for 10 minutes. Cell culture supernatants were then transferred to a clean plate and stored at −80° C. until ready to analyze for IFN-β levels. The IFN-β levels in cell culture supernatants were determined by ELISA kits (PBL Assay Science, catalog #41410) according to the manufacturer's instructions.
The % increase measured for IFN-β in cells treated by the test compounds 12, 48, 89, 103 and 121 relative to that of untreated cells were tested (as shown in FIGS. 1A-1E).

| SMILES | IC50 [1] | % increase measured for IFN-β relative to that of untreated cells [2] |
| --- | --- | --- |
| COc1ccc2c(ncc3nc(C)n(Cc4ccc(S(N)(=O)=O)cc4)c32)n1 [Compound 48, 4-((7-methoxy-2-methyl-1H-imidazo[4,5-c][1,8]naphthyridin-1-yl)methyl)benzenesulfonamide] | 290 pM | potently increased the IFN-β levels at very low concentrations |
| COc1cc2ncc3ncn(Cc4ccc(S(N)(=O)=O)cn4)c3c2cc1OC [Compound 12, 6-((7,8-dimethoxy-1H-imidazo[4,5-c]quinolin-1-yl)methyl)pyridine-3-sulfonamide] | 1200 pM | potently increased the IFN-β levels at very low concentrations |
| COc1ccc2c(n1)nc(C)c1nc(C)n(Cc3ccc(S(N)(=O)=O)cn3)c12 [Compound 89, 6-((7-methoxy-2,4-dimethyl-1H-imidazo[4,5-c][1,8]naphthyridin-1-yl)methyl)pyridine-3-sulfonamide] | 520 pM | potently increased the IFN-β levels at very low concentrations |
